Results on three compounds are retold here after US20040203034A1 (The University of Chicago, priority 2003, published 2004).

One data set has as its target T1, UGT1A1 (Homo sapiens, UniProt P22309).
T1 construct: microsomes were isolated following differential centrifugation methods; tissue Liver Tissue Procurement and Distribution System; Liver Core Bank Facility (St. Jude Children's Research Hospital); host or cells: normal human liver microsomes (n=83 donors)
T1 sequence (P22309 26-533): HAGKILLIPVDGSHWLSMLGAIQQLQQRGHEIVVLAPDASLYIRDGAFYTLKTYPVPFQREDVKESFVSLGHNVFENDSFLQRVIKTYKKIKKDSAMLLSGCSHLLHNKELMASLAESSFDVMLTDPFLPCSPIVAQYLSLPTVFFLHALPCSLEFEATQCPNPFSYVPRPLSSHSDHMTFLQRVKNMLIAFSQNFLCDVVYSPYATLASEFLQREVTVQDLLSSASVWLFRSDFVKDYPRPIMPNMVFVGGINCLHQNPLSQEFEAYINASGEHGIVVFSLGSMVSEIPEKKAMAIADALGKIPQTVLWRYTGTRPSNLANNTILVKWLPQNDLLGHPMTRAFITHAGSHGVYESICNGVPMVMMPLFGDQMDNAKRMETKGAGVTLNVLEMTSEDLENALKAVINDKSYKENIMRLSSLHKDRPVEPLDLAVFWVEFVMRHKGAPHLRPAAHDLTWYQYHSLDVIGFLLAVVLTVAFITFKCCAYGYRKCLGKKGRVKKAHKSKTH
Nature of the data set: SN-38 glucuronidation assay in human liver microsomes. Type of data set: in vitro ADME. The settings on record: for SN-38 glucuronidation rate: Caucasians. The source says:
Normal human livers (n=83) were mainly obtained from Liver Tissue Procurement and Distribution System (National Institutes of Diabetes and Digestive and Kidney Diseases, Minneapolis, Minn.). DNA was isolated by using Qiagen RNA/DNA Maxi Kit (Qiagen Inc., Valencia, Calif., USA), and microsomes were isolated following differential centrifugation methods (Purba et al., 1987). DNA and microsomes were provided by the Liver Core Bank Facility (St. Jude Children's Research Hospital) of the Pharmacogenetics of Anticancer Agents Research (PAAR) Group. In order to identify livers in which enzyme degradation occurred, liver samples consistently comprised in the 10th percentile of UGT1A1, UGT1A9 and UGT2B7 activities were sought. UGT1A9 and UGT2B7 activities were measured using specific probes (data not shown) (Ramirez et al., 2002 and Innocenti, et al., 2001). Out of eight samples within the 10th percentile of UGT1A1, only one sample was comprised within the 10th percentile of activities of the other two enzyme activities.
Samples were phenotyped by using SN-38 as a substrate for UGT1A1. The incubation mixture consisted of 5 μmol SN-38, 10 mmol MgCl2, 1 mg/ml microsomes, 0.025 mol Tris-HCl (pH 7.4) and 5 mmol UDP-GA. Samples were incubated for 30 min at 37° C. The reaction was stopped by the addition of methanol. These conditions were selected after previous optimization of the enzyme reaction (Iyer et al., 1998). Camptothecin (75 ng) was used as an internal standard. SN-38 glucuronidation was measured by HPLC (Hitachi Instruments Inc., San Jose, Calif., USA) with fluorescence detection (λ excitation=355 nm, λ emission=515 nm). A μBondapak™ C18 column (3.9×300 mm, 10 μm; Waters Corp., Milford, Mass., USA) and μBondapak™ C18 guardpak (Waters Corp.) were used. A mobile phase of […] acetonitrile/tetra-hydrofuran/0.9 mmol sodium heptanedfonic acid in 50 mmol potassium dihydrogen phosphate (pH 4) was used during the first 7 min of the run. From 7.1-25 min, the eluent consisted of 30/70 acetonitrile/5 mmol sodium heptanesulfonic acid in 50 mmol potassium dihydrogen phosphate (pH 4). The flow rate was 0.9 ml/min. […] The intra-assay variability was determined by performing 10 incubations on the same day using a pool of human liver microsomes. The inter-assay variability was evaluated by incubating a pool of human liver microsomes in triplicate on three different days. […]
UGT1A1 activity was phenotyped by measuring SN-38 glucuronidation rates of each liver as the mean±SD of a single experiment performed in triplicate. […] Moreover, trend analysis and pairwise comparisons were performed in genotypes expressed as the sum of TA repeats in both chromosomes (i.e. in samples with […] (5/6, 6/6, 5/7), 13 (6/7) and […] (7/7, 6/8, 7/8) TA repeat genotypes). […]
A general note: Microsomes from liver hold many membrane-bound enzymes, among them those of drug oxidation.

Data set [1] in a line: Pharmacokinetic analysis of irinotecan and metabolites in patient plasma. The class given is in vivo, human. Particulars: for SN-38 AUC, mean / SN-38^b AUC, mean: after irinotecan; for AUC: human, plasma, 350 mg/m2, Irinotecan AUC, mean. The protocol: Venous blood for pharmacokinetic analysis was collected on day 1 of cycle 1 for pharmacokinetic analysis. Samples of 7 ml were collected into green top sodium heparinized Vacutainer® tubes prior to the infusion; 30, 60, and 90 minutes during the infusion; and 10, 20, 30, 45, and 60 minutes and 1.5, 2, 4, 6, 12, and 24 hours after the infusion. Samples were centrifuged (2500 rpm, 20 min, 4° C.) and the plasma was immediately separated, transferred as two aliquots into storage tubes, frozen at −80° C. until analysis.
The glucuronidation ratio was expressed as the ratio of the SN-38G AUC over SN-38 AUC.

The next data set deals with UGT1A isoforms. Nature of the data set: In vitro TAS-103 and SN-38 glucuronidation activity in species deficient in UGT1A isoforms. Type of data set: in vitro ADME. The settings on record: Gunn rats and CN-1 patients deficient in UGT1A isoforms. The source says: On the other hand, while isoforms of the UGT1 family are the predominate isoforms involved in TAS-103 glucuronidation, the isoform of the UGT2 family may also participate in TAS-103 glucuronidation. Failure to glucuronidate SN-38 and TAS-103 in these instances may result specifically from the genetic defect in UGT1 gene family.

The test system of the next data set is solid tumors or lymphoma. The data set can be described thus: Objective tumor response in patients given irinotecan. The class given is in vivo, human.
The next data set deals with patients. Particulars: cited from earlier work.
The test system of data set [2] is patients with solid tumors or lymphoma.
Where [3] appears, read: TA indel genotype 6/6, 30 patients.
Where [4] appears, read: TA indel genotype 6/7, 25 patients.
Where [5] appears, read: TA indel genotype 7/7, 6 patients.

Read-outs that look alike come from different tables or passages of the source.

`CCc1c2c(nc3ccc(O)cc13)-c1cc3c(c(=O)n1C2)COC(=O)[C@]3(O)CC` [SN-38, 7-ethyl-10-hydroxycamptothecin]: the “coefficient of variation of SN-38 glucuronidation” value on UGT1A1 (83 human liver microsomes) stood at 46%. Besides, on UGT1A1 (83 human liver microsomes), the “range in SN-38 glucuronidation” value was found to be 10 fold. Moreover, the SN-38 glucuronidation rate is 2.53±0.82 SN-38G/IS at UGT1A1 (I/I haplotype pairs) and 2.06±0.74 SN-38G/IS at UGT1A1 (I/II haplotype pairs). Further, the “Glucuronidation Ratio (SN-38G AUC/SN-38 AUC), mean” value in data set [1] (setting [3]) worked out at 6.52; in data set [1] (setting [4]) it was 5.55; in data set [1] (setting [5]), 3.59. Besides, the “SN-38 AUC, mean” value in data set [1] (setting [3]) was 335.9 ng·h/mL; in data set [1] (setting [4]) it was 458.4 ng·h/mL; in data set [1] (setting [5]), 542.0 ng·h/mL. Also, the “SN-38^b AUC, mean” value worked out at 1954.2 ng·h/mL in data set [1] (setting [3]), 1887.9 ng·h/mL in data set [1] (setting [4]) and 1819.1 ng·h/mL in data set [1] (setting [5]). In the data set on UGT1A isoforms, the “in vitro glucuronidation compared to healthy liver donors” value is given as “no in vitro glucuronidation”.

For `CCc1c2c(nc3ccc(OC(=O)N4CCC(N5CCCCC5)CC4)cc13)-c1cc3c(c(=O)n1C2)COC(=O)[C@]3(O)CC` [irinotecan, 7-ethyl-10-[4-(1-piperidino)-1-piperidino]carbonyloxycamptothecin], the AUC came to 26100 ng·h/mL in data set [1] (intravenous, TA indel genotype 6/7, 25 patients); 25400 ng·h/mL in data set [1] (intravenous, TA indel genotype 7/7, 6 patients); 24400 ng·h/mL in data set [1] (iv, TA indel genotype 6/6, 30 patients, 350 mg/m2 90 minute i.v. infusion). For the same compound, the objective responses entry in the data set with solid tumors or lymphoma (60 patients assessable for response) is reported as “three objective responses”. In the data set on solid tumors or lymphoma (colorectal and head and neck cancer, 6/7 genotype), the “partial response, patients” value is “Two patients”. In addition, the “complete response, patients” value with solid tumors or lymphoma (colorectal cancer, 6/6 genotype) is “One colorectal cancer patient”. Moreover, the “patients experiencing grade 3-4 neutropenia” value in the data set on patients (both weekly and three-weekly regimens) was 30-40%. In addition, the “grade 3-4 diarrhea, share of patients” value in the data set with patients (early single agent trials (Negoro 1991; Rothenberg 1993)) was “about one third”. Besides, the “frequency of grade 3-4 diarrhea” value in the data set on patients (three-weekly regimen (Fuchs et al., 2003)) is listed as 19%; in the data set with patients (weekly schedule (Fuchs et al., 2003)) it was 36%. The mortality rate with patients (three-weekly single agent regimen (Fuchs et al., 2003)) is 1.6%; in the data set on patients (weekly single agent regimen (Fuchs et al., 2003)), 5.3%. For the same compound, the “frequency of grade 4 neutropenia” value in data set [2] (TA indel genotype 6/6 (0/30), cycle 1) is listed as 0%; in data set [2] (TA indel genotype 6/7 (3/24), cycle 1), 12.5%; in data set [2] (TA indel genotype 7/7 (3/6), cycle 1), 50%; in data set [2] (all assessable patients, cycle 1, 350 mg/m2 i.v. every 3 weeks), 9.5%. Further, the “frequency of grade 3 diarrhea” value in data set [2] (all patients, cycle 1) came out at 5%. Besides, the “grade 4 diarrhea” value in data set [2] (all patients, cycle 1) is on record as “no instances”. In data set [2] (neutropenia-related sepsis, 7/7 genotype, died on day 11), the toxic death result is listed as “One toxic death”. For the same compound, the “patients with grade 4 neutropenia” value in data set [2] (out of the 7 patients with total bilirubin higher than 0.7 mg/dl) is 4. For the same compound, the “cases of grade 4 neutropenia” value in data set [2] (patients with pretreatment total bilirubin less than 0.6 mg/dl) is on record as “No cases”.

For `CN(C)CCNc1nc2cc(O)ccc2c2c1C(=O)c1ccccc1-2.Cl.Cl` [TAS-103, 6-[[2-(dimethylamino)ethyl]amino]-3-hydroxy-7H-indeno[2,1-c]quinoline-7-one dihydrochloride], in the data set on UGT1A isoforms, the “lower glucuronidation rate in vitro compared to healthy liver donors” value is recorded as about 80%.

For orientation: AUC means the area under the concentration-time curve, a measure of exposure.
